Data on 1 compound can be found in patent US20250281478A1, “METHODS FOR PREVENTING OR TREATING KIDNEY DISEASES” (JEAMOON BEIJING CO., LTD., priority 2022, published 2025).

Common to all, as to type: in vivo, C57BL/6N mice
In experiment [1] the test system is mice with adenine-induced renal failure. Description: Serum creatinine (CREA) in adenine-induced renal failure mice. The following applies: for CREA after modeling for 3 weeks (after drug administration for 2 weeks) / CREA after modeling for 1 week (before drug administration): mean ± SD. The method, then: • a) Control group: Fed with adenine-free feed; other procedures were the same as those in the model group. • b) Model group: Fed with feed containing 0.25% adenine for modelling. • c) LY-10 mg/kg group: Model+LY2922470 (10 mg/kg, p.o., QD). • d) LY-30 mg/kg group: Model+LY2922470 (30 mg/kg, p.o., QD). • e) LY-60 mg/kg group: Model+LY2922470 (60 mg/kg, p.o., QD). • f) TAK875 group: Model+TAK875 (30 mg/kg, p.o., QD).
Except for the control group, all other mice were fed with a diet containing 0.25% adenine for modelling. The control group was fed with a normal diet. All mice were allowed free access to food. One week after modeling, each group of mice was administered the respective treatment via oral gavage once daily in the afternoon for two consecutive weeks. The control group and the model group received vehicle under a same condition. The adenine-containing diet was continuously administered for modeling throughout the treatment period until the end of the experiment. The physical condition of the mice was monitored, and body weight was measured and recorded weekly. Blood samples were collected from the orbital venous plexus at 1 week (post-modeling) and 3 weeks (after 2 weeks of treatment). Serum was separated for the measurement of serum creatinine (CRE) and blood urea nitrogen (BUN). At the end of the two-week treatment, renal function of each group was assessed using a TGFR renal function monitoring and smart analysis system. After testing, tissues were collected from the mice to confirm the efficacy of the treatment.
Statistical analyses were performed using GraphPad Prism 8.0 software. Continuous data of each group were expressed as mean+SD. One-way ANOVA was used for multi-group comparisons, and Student's t-test was used for comparisons between two groups. A p-value<0.05 was considered statistically significant. For categorical data, chi-square tests were used to compare between groups, with p<0.05 indicating a statistically significant difference.
Mice were fed a 0.25% adenine-containing diet. After one week, the mice were treated with LY2922470 or TAK875. During the treatment period, the adenine-containing diet was continued for modeling. After three weeks of adenine feeding (i.e., two weeks of drug administration), blood samples were collected from the mice, and serum was isolated for CREA and BUN measurements.

The test system is the same in experiment [2]. The experiment can be described thus: Survival of mice with adenine-induced renal failure. Conditions: for Survival Rate (%): started 1 week after start of continued 0.25% adenine diet, end of experiment; for Count after Drug Administration (surviving mice): 12 at enrollment. The protocol:
• 1. Experimental Animals: C57BL/6N, 8 weeks old, SPF grade, male. • 2. Experimental Drugs: • LY2922470 (Shanghai Taoshu Biotechnology Co., Ltd.) • TAK875 (Shanghai Taoshu Biotechnology Co., Ltd.)
1) Preparation of TAK875: A total of 27 mg of TAK875 powder was accurately weighed using an analytical balance and dissolved in 9 mL of 0.8% CMC-Na solution. The mixture was sonicated for 5 minutes to form a 3 mg/mL white suspension. The suspension was stored at 4° C. for later use.
2) Preparation of LY2922470: A total of 80 mg of LY2922470 yellow crystals was added to 200 μL of DMSO to form a clear yellow solution. The solution was gradually added in batches to 10 mL of 0.8% CMC-Na solution. After heating and sonication for 5 hours, an 8 mg/mL white suspension of LY2922470 was obtained. The suspension was stored at 4° C. for later use.
Eight-week-old male C57BL/6N mice were acclimatized for one week and then randomly divided into six groups. Except for the control group, all mice were fed a 0.25% adenine-containing diet for modelling. The control group received a normal diet. The mice had free access to food. One week after model induction, mice in each group were orally administered the corresponding drug once daily in the afternoon, according to their group assignment. The control group and the model group received vehicle under a same condition. During the treatment period, the adenine-containing diet was continued. Mouse survival was monitored until the end of the experiment.

Experiment [3] has as its system mice with two-week adenine-induced renal failure. The experiment can be described thus: Glomerular filtration rate in mice with two-week adenine-induced renal failure. Conditions: adenine diet replaced with normal chow after two weeks; LY2922470 p.o.; FIG. 5. The source says: Therefore, the modeling protocol was redesigned to re-evaluate the therapeutic effect of LY2922470 on renal failure (the adenine diet was replaced with normal chow after two weeks of feeding; other conditions remained unchanged).

Where [4] appears, read: based on Tables 2 and 3 (CREA and BUN), p.o.

For `CC#C[C@@H](CC(=O)O)c1ccc(OCc2ccc(CN3CCCc4cccc(OC)c43)s2)cc1` [LY2922470], the “CREA level compared with the model group” value in experiment [1] (LY2922470 30 mg/kg p.o. QD for 2 weeks) and in experiment [1] (LY2922470 60 mg/kg p.o. QD for 2 weeks) was “significantly decreased” throughout. The “CREA after modeling for 3 weeks (after drug administration for 2 weeks)” value in experiment [1] (LY2922470 30 mg/kg p.o. QD) was determined as 79.67 ± 19.28 µmol/L; in experiment [1] (LY2922470 60 mg/kg p.o. QD), 66.47 ± 13.35 µmol/L. In addition, the “Serum CREA level compared with the model group” value in experiment [1] (LY2922470 at different doses p.o. QD for 2 weeks) is “reduced”. Besides, in experiment [1] (setting [4]), the “Dose with the best effect (CREA, BUN)” value amounted to 30 mg/kg/day. Besides, the “Doses with therapeutic efficacy (CREA, BUN)” value in experiment [1] (setting [4]) was in the range of 30 to 60 mg/kg/day. For the same compound, the figures for the “CREA after modeling for 1 week (before drug administration)” value in experiment [1] (baseline of the LY2922470 10 mg/kg group), in experiment [1] (baseline of the LY2922470 30 mg/kg group) and in experiment [1] (baseline of the LY2922470 60 mg/kg group) were 56.14 ± 13.41 µmol/L, 54.85 ± 17.55 µmol/L and 57.02 ± 11.90 µmol/L, respectively. Besides, the “Survival Rate (%)” value came to 0% in experiment [2] (LY2922470 10 mg/kg p.o. QD); 100% in experiment [2] (LY2922470 30 mg/kg p.o. QD, 30 mg/kg); 100% in experiment [2] (LY2922470 30 mg/kg p.o. QD, listed as LY); 50% in experiment [2] (LY2922470 60 mg/kg p.o. QD, listed as LY). The entries for the “Count after Drug Administration (surviving mice)” value in experiment [2] (LY2922470 10 mg/kg p.o. QD), in experiment [2] (LY2922470 30 mg/kg p.o. QD) and in experiment [2] (LY2922470 60 mg/kg p.o. QD) were 0, 12 and 6, respectively. In addition, the “Day of adenine feeding by which all mice had died” value in experiment [2] (LY2922470 10 mg/kg p.o. QD, deaths began on day 20) is at most 27 days. Moreover, in experiment [2] (LY2922470 30 mg/kg vs TAK875 30 mg/kg), the “Final survival rate relative to the TAK875 group” value is “double”. Besides, the “Dose with optimal effect (survival)” value in experiment [2] (from Table 1 survival data, p.o.) is 30 mg/kg/day. Moreover, the “Renal function (GFR) compared with the model group” value in experiment [3] is recorded as “significantly improved”.
